Measured values as given in patent US9156830B2, “Heterocyclic compounds” (SHIONOGI & CO., LTD., priority 2011, dated 2015).

Legend:
Human TRPV1 [1] = biological target: T1, Human TRPV1 (Homo sapiens (Human), UniProt Q8NER1); assay: pH-Based Assay (Protocol 2), Ca2+ response in TRPV1/CHO cells; format: cell-based; settings: pH 5.0-5.1 (H2SO4)
Description: The TRPV1/CHO cell line was generated as described below. The following assay was conducted to determine the concentration of sulfuric acid that would give rise to a pH that induces a […] response optimal to test compounds for their effect on TRPV1. […] For one half of a 96-well plate one agonist solution was used, for the other half the other agonist solution. The agonist solutions were obtained by diluting sulfuric acid (H2SO4, 1 M) with measuring buffer. The concentrations for the two agonist solutions were determined as described above in Section 2 of Protocol 2. The sulfuric acid concentrations between the two agonist solutions differed by 0.5 mM. […] The thereby-obtained solutions were further diluted in measuring buffer (1:100) as 10× stock serial dilutions with a DMSO concentration of 1%. 10 μL of a 10× stock was added into each well at step 3.3.(4) of Protocol 2. Thus, the final concentrations of antagonists ranged from 1000-0.977 nM containing 0.1% DMSO (FIG. 3B). […] (3) The cells were washed twice with 150 μL of measuring buffer (mentioned in 2.2.(3) of Protocol 2, no probenecid). The wells were subsequently refilled with 70 μL of measuring buffer. (4) Either 10 μL of measuring buffer or 10 μL of 10× stock serial dilution of test compound (described in 3.2. above) were applied to each well. Usually, only one test compound was tested per 96-well plate. The number of replicates per 96-well plate for a particular antagonist at a particular concentration was 7×2 since two different sulfuric acid concentrations were used per 96-well plate (N=7×2)(FIG. 3). Step (5) was the same as 2.2.(4) above. (6) Fura-2 fluorescent intensity was monitored as described in 2.2.(5) above. […] Steps (7) and (8) were as described in 2.2.(6) and 2.2.(7) above, respectively. […] FIG. 3) were measured one by one using a portable pH meter.

[2] = Measurement of Body Temperature Increase; format: in vivo; settings: Crl/SD rats, oral, 1 mg/mL in 0.5% methylcellulose at 10 mL/kg; rectal temperature 0.5, 1 and 2 hrs after administration; difference from vehicle group average
Description: Selection of rats (Crl/SD rats, 7 weeks, male) for this study is based on rectal body temperature measured during the morning of the day of dosing. In addition, animals selected for this study are acclimated to both the rectal measurement procedure and to being handled and dosed to minimize spontaneous, stress-induced, increases in body temperature. The study is conducted in the animal care laboratories where the room temperature and humidity are kept. The rats are free to move and food and water during the study. Each rat is numbered with color line on the tail, housed in each cage and permittted the normal range of movement. Immediately before each body temperature is measured, they transferred to a single cage at each measurement. To reduce stress which affected the body temperature, the rats are covered with towels at the measurement. The thermistor probe is then carefully inserted into the rectum of each rat and left in place until the value on the digital display had stabilized.
On the day before dosing, rectal body temperatures are measured at 9:00, 10:00, 11:00, 12:30, 13:30, 14:30 and 15:30 to familiarize the animals with the measurement procedure prior to administration of the test or control treatments. The rats are also dosed by oral gavage without vehicle at 12:30 to acclimate and familiarized the animals with the handling and dosing procedure.
On the day of dosing, only rats whose rectal body temperatures are within the range of 37.0° C. to 37.7° C. are selected for this study. Rectal body temperatures are measured at 9:00, 10:00 and 11:00. Rats whose rectal body temperatures are over 37.9° C. at 10:00, and are outside the range of 37.0° C. to 37.7° C. at 11:00 are excluded from the study. The selected rats are divided to several groups based on their rectal body temperatures at 11:00. Rectal body temperatures of the selected rats are measured again at 12:30, and any rats whose rectal body temperature is 38.0° C. or greater are excluded from the study.
Following the group assignment, test compounds or vehicle is administrated to the rats. Each test compound is dissolved in 0.5% methylcellulose and the final concentration of the compound is adjusted to 1 mg/mL. Test compound is orally administrated in a volume 10 mL/kg once. 10 mL/kg of vehicle (0.5% methylcellulose) is administered to the vehicle group. The rectal body temperatures are measured 0.5, 1 and 2 hrs after the administration. The study is conducted in the animal care laboratories where the room temperature and humidity are kept.
Body temperature increase (ΔTb) is calculated from the difference from an average of the vehicle group at each time point. The body temperature increases (ΔTb) of Compounds I-20, I-25, I-26, I-28, I-29, I-33, I-34, I-36, I-37, I-63 and I-64 were less than 0.3° C.

Human TRPV1 [3] = biological target: T1, Human TRPV1; assay: Capsaicin-Based Assay (Protocol 2), TRPV1/CHO cells; format: cell-based; settings: capsaicin 100 nM final
Description: The TRPV1/CHO cell line was generated as described below. […] Subsequently, the cells were loaded by incubation in 0.1 mL of wash buffer containing Fluo-4 at 3 μM final concentration. After 1 hour, the cells were washed twice with 0.2 mL wash buffer and resuspended in 0.1 mL wash buffer. The plates were then transferred to a Fluorescence Imaging Plate Reader (Molecular Devices). Fluorescence intensity was monitored for 15 seconds to establish a baseline. […] The final concentration of the compound was adjusted to range from 100 μM to 1.5625 μM. […] Data were collected over the entire time course and analyzed using Excel and the curve-fitting formula GraphPad Prism.

[4] = Fura-2, read-out: TRPV1 IC50 Potency pH-Based Assay IC50
[5] = Fluo-4, read-out: TRPV1 IC50 Potency Capsaicin-Based Assay IC50
[6] = Fura-2, read-out: IC50 value by the pH-Based Assay
[7] = Fluo-4, read-out: IC50 value by the Capsaicin-Based Assay

T1 sequence (Q8NER1 whole entry): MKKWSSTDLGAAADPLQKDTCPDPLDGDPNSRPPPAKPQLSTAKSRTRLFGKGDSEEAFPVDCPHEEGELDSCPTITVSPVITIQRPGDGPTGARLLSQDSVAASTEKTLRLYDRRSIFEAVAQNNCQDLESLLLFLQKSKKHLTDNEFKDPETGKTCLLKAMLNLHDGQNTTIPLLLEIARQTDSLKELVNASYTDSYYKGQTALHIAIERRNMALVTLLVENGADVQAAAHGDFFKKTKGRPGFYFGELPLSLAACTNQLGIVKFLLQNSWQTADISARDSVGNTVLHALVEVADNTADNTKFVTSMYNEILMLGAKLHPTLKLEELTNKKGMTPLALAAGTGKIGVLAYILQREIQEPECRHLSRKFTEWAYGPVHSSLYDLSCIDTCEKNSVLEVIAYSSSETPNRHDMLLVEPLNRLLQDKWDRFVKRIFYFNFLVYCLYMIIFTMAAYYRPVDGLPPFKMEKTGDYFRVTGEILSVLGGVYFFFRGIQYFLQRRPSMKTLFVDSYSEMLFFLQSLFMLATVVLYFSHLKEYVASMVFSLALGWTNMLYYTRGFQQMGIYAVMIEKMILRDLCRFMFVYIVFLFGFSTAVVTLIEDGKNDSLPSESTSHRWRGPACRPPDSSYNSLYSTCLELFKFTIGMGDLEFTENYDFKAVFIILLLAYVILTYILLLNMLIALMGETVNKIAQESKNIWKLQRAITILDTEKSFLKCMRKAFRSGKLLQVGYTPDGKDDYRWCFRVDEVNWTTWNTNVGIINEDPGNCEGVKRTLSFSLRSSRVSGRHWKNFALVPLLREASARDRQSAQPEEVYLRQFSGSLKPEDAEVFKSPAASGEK

Compound	IC50 (Human TRPV1 [3]; [5]) [nM]	IC50 (Human TRPV1 [1]; [6]) [nM]	IC50 (Human TRPV1 [3]; [7]) [nM]	also measured
Cc1nnc(-c2cnc(C3=CCN(C(=O)Nc4ccc(C(C)(C)C)cc4)CC3)c(Cl)c2)o1 [Compound I-7]				IC50 (Human TRPV1 [1]; [4]): 0.5 nM
O=C(Nc1ccc(C(F)(F)F)c(Cl)c1)N1CC=C(c2ncc(-c3noc(CO)n3)cc2Cl)CC1 [Compound I-25, N-(3-chloro-4-(trifluoromethyl)phenyl)-4-(3-chloro-5-(5-(hydroxymethyl)-1,2,4-oxadiazol-3-yl)pyridin-2-yl)-5,6-dihydropyridine-1(2H)-carboxamide]				Body temperature increase (ΔTb) [2]: less than 0.3 °C
Cc1cc(-c2ccc(CO)o2)cnc1C1(F)CCN(C(=O)Nc2ccc(C(F)(F)F)c(Cl)c2)CC1 [Compound I-39, N-(3-chloro-4-(trifluoromethyl)phenyl)-4-fluoro-4-(5-(5-(hydroxymethyl)furan-2-yl)-3-methylpyridin-2-yl)piperidine-1-carboxamide]	342			
Cc1cc(NC(=O)N2CC=C(c3ncc(-c4nnc(CO)o4)cc3C)CC2)ccc1C(F)(F)F [Compound I-44, 4-(5-(5-(hydroxymethyl)-1,3,4-oxadiazol-2-yl)-3-methylpyridin-2-yl)-N-(3-methyl-4-(trifluoromethyl)phenyl)-5,6-dihydropyridine-1(2H)-carboxamide]			≤ 100	IC50 (Human TRPV1 [1]; [4]): 1 nM
O=C(Nc1ccc(C(F)(F)F)c(Cl)c1)N1CC=C(c2ncc(-c3nnc(CCO)o3)cc2Cl)CC1 [Compound I-50, N-(3-chloro-4-(trifluoromethyl)phenyl)-4-(3-chloro-5-(5-(2-hydroxyethyl)-1,3,4-oxadiazol-2-yl)pyridin-2-yl)-5,6-dihydropyridine-1(2H)-carboxamide]				IC50 (Human TRPV1 [1]; [4]): 60.8 nM
O=C(Nc1ccc(C(F)(F)F)c(Cl)c1)N1CCC(F)(c2ncc(-c3cc(CO)on3)cc2Cl)CC1 [Compound I-52, N-(3-chloro-4-(trifluoromethyl)phenyl)-4-(3-chloro-5-(5-(hydroxymethyl)isoxazol-3-yl)pyridin-2-yl)-4-fluoropiperidine-1-carboxamide]		≤ 100	≤ 100	
O=C(Nc1ccc(C(F)(F)F)cn1)N1CCC(F)(c2ncc(-c3cc(CO)on3)cc2Cl)CC1 [Compound I-53, 4-(3-chloro-5-(5-(hydroxymethyl)isoxazol-3-yl)pyridin-2-yl)-4-fluoro-N-(5-(trifluoromethyl)pyridin-2-yl)piperidine-1-carboxamide]		≤ 100	≤ 100	
Cc1cc(NC(=O)N2CCC(F)(c3ncc(-c4cc(CO)on4)cc3Cl)CC2)ccc1C(F)(F)F [Compound I-54, 4-(3-chloro-5-(5-(hydroxymethyl)isoxazol-3-yl)pyridin-2-yl)-4-fluoro-N-(3-methyl-4-(trifluoromethyl)phenyl)piperidine-1-carboxamide]		≤ 100	≤ 100	
O=C(Nc1ccc(C(F)(F)F)cn1)N1CCC(F)(c2ncc(-c3nc(CO)no3)cc2Cl)CC1 [Compound I-57, 4-(3-chloro-5-(3-(hydroxymethyl)-1,2,4-oxadiazol-5-yl)pyridin-2-yl)-4-fluoro-N-(5-(trifluoromethyl)pyridin-2-yl)piperidine-1-carboxamide]	16.6			
O=C(Nc1ccc(C(F)(F)F)c(Cl)c1)N1CC=C(c2ncc(N3C[C@@H](O)[C@@H](O)C3=O)cc2Cl)CC1 [Compound I-71, N-(3-chloro-4-(trifluoromethyl)phenyl)-4-(3-chloro-5-((3R,4R)-3,4-dihydroxy-2-oxopyrrolidin-1-yl)pyridin-2-yl)-5,6-dihydropyridine-1(2H)-carboxamide]	322			
Cc1cc(NC(=O)N2CC=C(c3ccc(-c4nnc(CO)o4)cc3Cl)CC2)ccc1C(F)(F)F [Compound I-76, 4-(2-chloro-4-(5-(hydroxymethyl)-1,3,4-oxadiazol-2-yl)phenyl)-N-(3-methyl-4-(trifluoromethyl)phenyl)-5,6-dihydropyridine-1(2H)-carboxamide]			≤ 100	IC50 (Human TRPV1 [1]; [4]): 2.1 nM
Cc1cc(NC(=O)N2CC=C(c3ncc(Cc4ncco4)cc3Cl)CC2)ccc1C(F)(F)F [Compound I-80, 4-(3-chloro-5-(oxazol-2-ylmethyl)pyridin-2-yl)-N-(3-methyl-4-(trifluoromethyl)phenyl)-5,6-dihydropyridine-1(2H)-carboxamide]	223			
O=C(C#Cc1ccc(-c2nnc(CO)o2)cc1Cl)Nc1ccc(C(F)(F)F)c(Cl)c1 [Compound I-81, 3-(2-chloro-4-(5-(hydroxymethyl)-1,3,4-oxadiazol-2-yl)phenyl)-N-(3-chloro-4-(trifluoromethyl)phenyl)propiolamide]				IC50 (Human TRPV1 [1]; [4]): 12.8 nM

The next lines start with results.

IC50 (Human TRPV1 [3]; [5]) [nM]	IC50 (Human TRPV1 [1]; [6]) [nM]	IC50 (Human TRPV1 [3]; [7]) [nM]	Compound	also measured
	≤ 100	≤ 100	Cc1cc(-c2nnc(CO)o2)cnc1C1=CCN(C(=O)Nc2ccc(C(F)(F)F)c(Cl)c2)CC1 [Compound I-43, N-(3-chloro-4-(trifluoromethyl)phenyl)-4-(5-(5-(hydroxymethyl)-1,3,4-oxadiazol-2-yl)-3-methylpyridin-2-yl)-5,6-dihydropyridine-1(2H)-carboxamide]	
357			O=C(NCCNc1ncc(-c2nnc(CO)o2)cc1Cl)Nc1ccc(C(F)(F)F)c(Cl)c1 [Compound I-60, 1-(3-chloro-4-(trifluoromethyl)phenyl)-3-(2-(3-chloro-5-(5-(hydroxymethyl)-1,3,4-oxadiazol-2-yl)pyridin-2-ylamino)ethyl) urea]	
	≤ 100	≤ 100	O=C(Nc1ccc(C(F)(F)F)c(Cl)c1)C1=CCN(c2ncc(-c3nnc(CO)o3)cc2Cl)CC1 [Compound I-67, N-(3-chloro-4-(thloro-5-(5-(hydroxymethyl)-1,3,4-oxadiazol-2-yl)pyridin-2-yl)-1,2,3,6-terifluoromethyl)phenyl)-1-(3-ctrahydropyridine-4-carboxamide]	
	≤ 100	≤ 100	O=C(Nc1ccc(C(F)(F)F)c(Cl)c1)N1CC=C(c2ccc(-c3nnc(CO)o3)cc2Cl)CC1 [Compound I-75, 4-(2-chloro-4-(5-(hydroxymethyl)-1,3,4-oxadiazol-2-yl)phenyl)-N-(3-chloro-4-(trifluoromethyl)phenyl)-5,6-dihydropyridine-1(2H)-carboxamide]	
38.8			O=C(Nc1ccc(C(F)(F)F)c(Cl)c1)N1CC=C(c2ncc(Cc3nnc(CO)o3)cc2Cl)CC1 [Compound I-77, N-(3-chloro-4-(trifluoromethyl)phenyl)-4-(3-chloro-5-((5-(hydroxymethyl)-1,3,4-oxadiazol-2-yl)methyl)pyridin-2-yl)-5,6-dihydropyridine-1(2H)-carboxamide]	
